Data published in the NIST ThermoML archive (doi:10.1021/je200434a).

Conditions: 101.33 kPa, Liquid; for viscosity: Concentric cylinders viscometry; for mass density: Vibrating tube method

CCCCCCCCOS(=O)(=O)[O-].CCn1cc[n+](C)c1 [1-ethyl-3-methylimidazolium octyl sulfate]
Conditions | mass density [kg/m3] | viscosity [mPa·s]
283.15 K | – | 1879
288.15 K | – | 1252.1
293.15 K | 1098.76 | 856
294.15 K | 1098.1 | –
295.15 K | 1097.43 | –
296.15 K | 1096.77 | –
297.15 K | 1096.31 | –
298.15 K | 1095.65 | 601.6
299.15 K | 1094.99 | –
300.15 K | 1094.32 | –
301.15 K | 1093.65 | –
302.15 K | 1092.99 | –
303.15 K | 1092.32 | 433.6
304.15 K | 1091.66 | –
305.15 K | 1090.99 | –
306.15 K | 1090.33 | –
307.15 K | 1089.66 | –
308.15 K | 1089 | 319.6
309.15 K | 1088.33 | –
310.15 K | 1087.67 | –
311.15 K | 1087 | –
312.15 K | 1086.34 | –
313.15 K | 1085.68 | 240.5
314.15 K | 1085.02 | –
315.15 K | 1084.36 | –
316.15 K | 1083.7 | –
317.15 K | 1083.04 | –
318.15 K | 1082.38 | 184.4
319.15 K | 1081.72 | –
320.15 K | 1081.06 | –
321.15 K | 1080.4 | –
322.15 K | 1079.75 | –
323.15 K | 1079.09 | 143.8
324.15 K | 1078.44 | –
325.15 K | 1077.78 | –
326.15 K | 1077.13 | –
327.15 K | 1076.48 | –
328.15 K | 1075.83 | 113.9
329.15 K | 1075.17 | –
330.15 K | 1074.52 | –
331.15 K | 1073.87 | –
332.15 K | 1073.23 | –
333.15 K | 1072.58 | 91.6
334.15 K | 1071.93 | –
335.15 K | 1071.29 | –
336.15 K | 1070.64 | –
337.15 K | 1070 | –
338.15 K | 1069.35 | 74.5
339.15 K | 1068.71 | –
340.15 K | 1068.07 | –
341.15 K | 1067.43 | –
342.15 K | 1066.79 | –
343.15 K | 1066.15 | 61.4
344.15 K | 1065.51 | –
345.15 K | 1064.87 | –
346.15 K | 1064.23 | –
347.15 K | 1063.6 | –
348.15 K | 1062.96 | 51.1
349.15 K | 1062.32 | –
350.15 K | 1061.69 | –
351.15 K | 1061.05 | –
352.15 K | 1060.42 | –
353.15 K | 1059.79 | 43
354.15 K | 1059.16 | –
355.15 K | 1058.53 | –
356.15 K | 1057.89 | –
357.15 K | 1057.26 | –
358.15 K | 1056.63 | 36.5
359.15 K | 1056 | –
360.15 K | 1055.37 | –
361.15 K | 1054.75 | –
362.15 K | 1054.12 | –
363.15 K | 1053.49 | 31.3
368.15 K | – | 27
373.15 K | – | 23.5

CCCCCCOS(=O)(=O)[O-].CC[n+]1ccn(C)c1 [3-ethyl-1-methyl-1H-imidazolium hexyl sulfate]
Conditions | mass density [kg/m3] | viscosity [mPa·s]
283.15 K | – | 875
288.15 K | – | 604
293.15 K | 1133.8 | 428.3
294.15 K | 1133.12 | –
295.15 K | 1132.45 | –
296.15 K | 1131.77 | –
297.15 K | 1131.09 | –
298.15 K | 1130.42 | 311.4
299.15 K | 1129.74 | –
300.15 K | 1129.07 | –
301.15 K | 1128.4 | –
302.15 K | 1127.72 | –
303.15 K | 1127.05 | 231.5
304.15 K | 1126.38 | –
305.15 K | 1125.71 | –
306.15 K | 1125.04 | –
307.15 K | 1124.37 | –
308.15 K | 1123.7 | 175.7
309.15 K | 1123.03 | –
310.15 K | 1122.36 | –
311.15 K | 1121.7 | –
312.15 K | 1121.03 | –
313.15 K | 1120.37 | 135.9
314.15 K | 1119.7 | –
315.15 K | 1119.04 | –
316.15 K | 1118.38 | –
317.15 K | 1117.72 | –
318.15 K | 1117.06 | 106.9
319.15 K | 1116.4 | –
320.15 K | 1115.74 | –
321.15 K | 1115.08 | –
322.15 K | 1114.42 | –
323.15 K | 1113.77 | 85.4
324.15 K | 1113.12 | –
325.15 K | 1112.46 | –
326.15 K | 1111.81 | –
327.15 K | 1111.16 | –
328.15 K | 1110.51 | 69.2
329.15 K | 1109.86 | –
330.15 K | 1109.21 | –
331.15 K | 1108.56 | –
332.15 K | 1107.92 | –
333.15 K | 1107.27 | 56.8
334.15 K | 1106.63 | –
335.15 K | 1105.98 | –
336.15 K | 1105.33 | –
337.15 K | 1104.69 | –
338.15 K | 1104.05 | 47.2
339.15 K | 1103.41 | –
340.15 K | 1102.77 | –
341.15 K | 1102.13 | –
342.15 K | 1101.49 | –
343.15 K | 1100.85 | 39.6
344.15 K | 1100.21 | –
345.15 K | 1099.57 | –
346.15 K | 1098.93 | –
347.15 K | 1098.3 | –
348.15 K | 1097.66 | 33.6
349.15 K | 1097.02 | –
350.15 K | 1096.39 | –
351.15 K | 1095.75 | –
352.15 K | 1095.12 | –
353.15 K | 1094.49 | 28.8
354.15 K | 1093.85 | –
355.15 K | 1093.22 | –
356.15 K | 1092.59 | –
357.15 K | 1091.95 | –
358.15 K | 1091.32 | 24.8
359.15 K | 1090.69 | –
360.15 K | 1090.06 | –
361.15 K | 1089.43 | –
362.15 K | 1088.8 | –
363.15 K | 1088.17 | 21.6
368.15 K | – | 18.9
373.15 K | – | 16.7

CCCCOS(=O)(=O)[O-].CC[n+]1ccn(C)c1 [3-ethyl-1-methylimidazolium butyl sulfate]
Conditions | mass density [kg/m3] | viscosity [mPa·s]
283.15 K | – | 468.4
288.15 K | – | 332.5
293.15 K | 1179.68 | 242.3
294.15 K | 1178.99 | –
295.15 K | 1178.3 | –
296.15 K | 1177.62 | –
297.15 K | 1176.93 | –
298.15 K | 1176.24 | 180.8
299.15 K | 1175.55 | –
300.15 K | 1174.87 | –
301.15 K | 1174.19 | –
302.15 K | 1173.5 | –
303.15 K | 1172.82 | 137.9
304.15 K | 1172.14 | –
305.15 K | 1171.46 | –
306.15 K | 1170.78 | –
307.15 K | 1170.11 | –
308.15 K | 1169.43 | 107.2
309.15 K | 1168.75 | –
310.15 K | 1168.08 | –
311.15 K | 1167.41 | –
312.15 K | 1166.73 | –
313.15 K | 1166.06 | 84.8
314.15 K | 1165.39 | –
315.15 K | 1164.73 | –
316.15 K | 1164.06 | –
317.15 K | 1163.39 | –
318.15 K | 1162.73 | 68.1
319.15 K | 1162.06 | –
320.15 K | 1161.4 | –
321.15 K | 1160.74 | –
322.15 K | 1160.07 | –
323.15 K | 1159.41 | 55.6
324.15 K | 1158.76 | –
325.15 K | 1158.1 | –
326.15 K | 1157.43 | –
327.15 K | 1156.78 | –
328.15 K | 1156.12 | 45.9
329.15 K | 1155.47 | –
330.15 K | 1154.81 | –
331.15 K | 1154.16 | –
332.15 K | 1153.51 | –
333.15 K | 1152.85 | 38.4
334.15 K | 1152.2 | –
335.15 K | 1151.55 | –
336.15 K | 1150.9 | –
337.15 K | 1150.25 | –
338.15 K | 1149.6 | 32.4
339.15 K | 1148.95 | –
340.15 K | 1148.3 | –
341.15 K | 1147.65 | –
342.15 K | 1147.01 | –
343.15 K | 1146.37 | 27.7
344.15 K | 1145.72 | –
345.15 K | 1145.07 | –
346.15 K | 1144.43 | –
347.15 K | 1143.78 | –
348.15 K | 1143.14 | 23.8
349.15 K | 1142.5 | –
350.15 K | 1141.85 | –
351.15 K | 1141.21 | –
352.15 K | 1140.57 | –
353.15 K | 1139.93 | 20.7
354.15 K | 1139.29 | –
355.15 K | 1138.65 | –
356.15 K | 1138.01 | –
357.15 K | 1137.37 | –
358.15 K | 1136.73 | 18.1
359.15 K | 1136.09 | –
360.15 K | 1135.45 | –
361.15 K | 1134.82 | –
362.15 K | 1134.18 | –
363.15 K | 1133.54 | 16
368.15 K | – | 14.2
373.15 K | – | 12.6
